Assays:
Assay type in all cases: biochemical
HDAC6 enzyme = target: T1, HDAC6 enzyme (Homo sapiens, UniProt Q9UBN7); test: HDAC6 enzyme inhibitory assay (HDAC-Glo I/II Assay kit); details: 1 μM test compound; wells without enzyme = 100% inhibition; read-out: HDAC6 inhibitory rate (%) (1 μM)
T1 construct: transducing full length HDAC1 and HDAC6 genes into Sf-9 insect cells; GST; purchased SignalChem; host or cells: Sf-9 insect cells
T1 sequence (Q9UBN7 1-1215): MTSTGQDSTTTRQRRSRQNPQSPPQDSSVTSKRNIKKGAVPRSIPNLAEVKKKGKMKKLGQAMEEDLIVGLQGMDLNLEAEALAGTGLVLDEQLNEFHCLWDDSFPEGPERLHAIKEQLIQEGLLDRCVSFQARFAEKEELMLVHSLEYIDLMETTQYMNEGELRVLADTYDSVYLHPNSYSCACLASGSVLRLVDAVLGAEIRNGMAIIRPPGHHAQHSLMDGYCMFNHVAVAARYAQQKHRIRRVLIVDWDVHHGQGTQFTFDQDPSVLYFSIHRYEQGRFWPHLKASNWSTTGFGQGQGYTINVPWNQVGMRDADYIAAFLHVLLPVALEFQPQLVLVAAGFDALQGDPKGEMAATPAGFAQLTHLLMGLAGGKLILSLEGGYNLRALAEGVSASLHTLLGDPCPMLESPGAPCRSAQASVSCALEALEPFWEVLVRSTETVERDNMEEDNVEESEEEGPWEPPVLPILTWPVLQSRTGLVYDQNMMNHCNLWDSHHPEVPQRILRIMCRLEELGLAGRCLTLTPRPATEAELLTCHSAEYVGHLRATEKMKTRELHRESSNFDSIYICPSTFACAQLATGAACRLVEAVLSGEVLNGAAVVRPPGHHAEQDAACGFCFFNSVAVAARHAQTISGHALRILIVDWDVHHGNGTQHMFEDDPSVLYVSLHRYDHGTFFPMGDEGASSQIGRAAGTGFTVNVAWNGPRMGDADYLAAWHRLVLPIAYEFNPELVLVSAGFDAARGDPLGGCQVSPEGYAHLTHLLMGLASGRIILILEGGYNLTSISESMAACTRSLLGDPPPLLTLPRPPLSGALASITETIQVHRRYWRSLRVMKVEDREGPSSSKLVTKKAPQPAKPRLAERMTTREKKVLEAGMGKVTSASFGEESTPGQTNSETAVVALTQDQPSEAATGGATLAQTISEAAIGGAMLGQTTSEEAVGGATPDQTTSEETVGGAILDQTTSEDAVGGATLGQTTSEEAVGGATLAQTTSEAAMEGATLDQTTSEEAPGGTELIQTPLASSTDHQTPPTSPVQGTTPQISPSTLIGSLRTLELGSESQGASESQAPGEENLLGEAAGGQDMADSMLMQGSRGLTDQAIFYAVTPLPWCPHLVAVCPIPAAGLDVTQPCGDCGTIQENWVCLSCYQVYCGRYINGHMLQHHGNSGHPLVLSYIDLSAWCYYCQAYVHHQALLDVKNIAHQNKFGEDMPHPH
Method: (§1) HDAC1/6 Enzyme Inhibitory Assay
(§2) HDAC1 enzyme and HDAC6 enzyme each prepared by transducing full length HDAC1 and HDAC6 genes into Sf-9 insect cells and purifying by GST affinity column were purchased from SignalChem. Using these enzymes, HDAC1 and/or HDAC6 enzyme inhibitory activities of the compound of the present invention were evaluated. Enzymes were used after preserved at −70° C. HDAC1 or HDAC6 enzyme inhibitory activity of the compound of the present invention was measured using HDAC-Glo™ I/II Assay kit (Promega) according to the following experimental method. The test compound diluted with assay buffer (24 mM Tris-HCl (pH 7.5), 1 mM MgCl2, 0.35 mM KCl, 135 mM NaCl, 0.6 mM Glutathione, 0.01% Tween-20) was added to a 384-well plate by each 2 μL. Then, HDAC1 or HDAC6 enzyme solution diluted with assay buffer was added thereto by each 4 μL, and the plate was incubated at room temperature for 60 min. After incubated, HDAC substrate-Developer solution prepared according to Promega protocol attached to the assay kit was added to the 384-well plate by each 2 μL, and the enzyme reaction was started. After reacting at room temperature for 20 min, luminescence level was measured using plate reader Envision (PerkinElmer). The inhibitory activity of each compound was calculated as a relative activity value when luminescence level in wells without enzyme is considered as 100% inhibition.

HDAC1 enzyme = target: T2, HDAC1 enzyme (Homo sapiens, UniProt Q13547); test: HDAC1 enzyme inhibitory assay (HDAC-Glo I/II Assay kit); details: 1 μM test compound; wells without enzyme = 100% inhibition; read-out: HDAC1 inhibitory rate (%) (1 μM)
T2 construct: transducing full length HDAC1 and HDAC6 genes into Sf-9 insect cells; GST; purchased SignalChem; host or cells: Sf-9 insect cells
T2 sequence (Q13547 whole entry): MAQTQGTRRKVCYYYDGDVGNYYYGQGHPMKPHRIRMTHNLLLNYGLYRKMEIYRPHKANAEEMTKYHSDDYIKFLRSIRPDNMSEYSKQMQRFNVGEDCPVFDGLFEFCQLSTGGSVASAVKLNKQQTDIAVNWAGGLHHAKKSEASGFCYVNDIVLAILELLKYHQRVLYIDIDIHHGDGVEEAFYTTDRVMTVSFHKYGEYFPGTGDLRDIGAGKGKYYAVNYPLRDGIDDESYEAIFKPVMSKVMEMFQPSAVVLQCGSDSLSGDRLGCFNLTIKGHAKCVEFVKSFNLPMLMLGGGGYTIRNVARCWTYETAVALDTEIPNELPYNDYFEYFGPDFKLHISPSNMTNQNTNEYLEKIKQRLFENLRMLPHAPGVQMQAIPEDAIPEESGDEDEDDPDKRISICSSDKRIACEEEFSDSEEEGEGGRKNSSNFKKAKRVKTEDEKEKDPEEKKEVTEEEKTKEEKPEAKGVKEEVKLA
Method: as §1, §2

HDAC9 enzyme = target: T3, HDAC9 enzyme (Homo sapiens, UniProt Q9UKV0); test: HDAC9 enzyme inhibitory assay (HDAC-Glo class IIa); details: 1 μM test compound; wells without enzyme = 100% inhibition; read-out: HDAC9 inhibitory rate (%) (1 μM)
T3 construct: transducing full length HDAC9 gene into Sf-9 insect cells; made in house; host or cells: Sf-9 insect cells
T3 sequence (Q9UKV0 whole entry, species assumed): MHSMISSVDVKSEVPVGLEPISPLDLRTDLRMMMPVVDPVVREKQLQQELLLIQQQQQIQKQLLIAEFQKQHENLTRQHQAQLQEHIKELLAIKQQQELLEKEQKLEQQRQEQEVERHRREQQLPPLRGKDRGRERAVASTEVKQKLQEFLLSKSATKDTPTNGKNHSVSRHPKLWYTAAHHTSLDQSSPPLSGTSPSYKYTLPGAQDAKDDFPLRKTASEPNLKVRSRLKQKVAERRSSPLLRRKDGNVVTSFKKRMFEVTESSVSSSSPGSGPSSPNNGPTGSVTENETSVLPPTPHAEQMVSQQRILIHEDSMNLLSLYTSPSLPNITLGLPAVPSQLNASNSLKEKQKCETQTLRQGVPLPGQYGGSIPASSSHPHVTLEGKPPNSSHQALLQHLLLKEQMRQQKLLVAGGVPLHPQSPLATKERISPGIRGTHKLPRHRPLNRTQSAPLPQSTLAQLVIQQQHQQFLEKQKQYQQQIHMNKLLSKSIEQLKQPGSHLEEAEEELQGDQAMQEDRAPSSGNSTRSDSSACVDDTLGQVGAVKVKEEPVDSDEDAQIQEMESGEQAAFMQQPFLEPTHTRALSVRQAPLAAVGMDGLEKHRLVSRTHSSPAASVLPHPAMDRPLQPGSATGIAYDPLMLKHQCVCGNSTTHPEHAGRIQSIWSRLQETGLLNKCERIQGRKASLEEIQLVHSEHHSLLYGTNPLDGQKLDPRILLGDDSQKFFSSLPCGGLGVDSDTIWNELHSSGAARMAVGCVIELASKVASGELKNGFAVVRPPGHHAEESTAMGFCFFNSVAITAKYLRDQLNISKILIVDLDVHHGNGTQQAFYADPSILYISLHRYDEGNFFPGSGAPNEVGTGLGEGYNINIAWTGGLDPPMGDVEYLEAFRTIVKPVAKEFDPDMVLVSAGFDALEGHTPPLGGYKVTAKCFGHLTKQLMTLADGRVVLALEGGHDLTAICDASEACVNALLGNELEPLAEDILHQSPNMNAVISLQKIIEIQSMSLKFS
Method: HDAC9 Enzyme Inhibitory Assay
Enzyme was prepared by transducing full length HDAC9 gene into Sf-9 insect cells and purifying by Ni-NTA affinity column, and HDAC9 enzyme inhibitory activity was evaluated. Enzymes were used after preserved at −70° C. HDAC9 enzyme inhibitory activity of the test compound was measured using HDAC-Glo class IIa (Promega) according to the following experimental method. The test compound diluted with assay buffer (24 mM Tris-HCl (pH 7.5), 1 mM MgCl2, 0.35 mM KCl, 135 mM NaCl, 0.6 mM Glutathione, 0.01% Tween-20) was added to a 384-well plate by each 2 μL. Then, HDAC9 enzyme solution diluted with assay buffer was added thereto by each 2 μL, and the plate was incubated at room temperature for 60 min. After incubated, HDAC substrate-Developer solution prepared according to Promega protocol was added to the 384-well plate by each 4 μL, and the enzyme reaction was started. After reacting at room temperature for 20 min, luminescence level was measured using plate reader Envision (PerkinElmer). The inhibitory activity of each compound was calculated as a relative activity value when luminescence level in wells without enzyme is considered as 100% inhibition.

SMILES	inhibition at 1 µM (HDAC6 enzyme)	inhibition at 1 µM (HDAC1 enzyme)	inhibition at 1 µM (HDAC9 enzyme)
COc1cc(F)ccc1[C@H](C)N1Cc2ccc(-c3noc(C(F)(F)F)n3)cc2C1=O [Example 20, 2-((S)-1-(4-fluoro-2-methoxyphenyl)ethyl)-6-(5-(trifluoromethyl)-1,2,4-oxadiazol-yl)isoindolin-1-one]	95%	16%	66%
C[C@@H](c1ccc(F)cc1OC(F)F)N1Cc2ccc(-c3noc(C(F)(F)F)n3)cc2C1=O [Example 21, 2-((1S)-1-(2-(difluoromethoxy)-4-fluorophenyl)ethyl)-6-(5-(trifluoromethyl)-1,2,4-oxadiazol-3 yl)isoindolin-1-one]	96%	18%	73%
C[C@@H](c1cccc2ccccc12)N1Cc2ccc(-c3noc(C(F)(F)F)n3)cc2C1=O [Example 22, 2-((1S)-1-(1-naphthyl)ethyl)-6-(5-(trifluoromethyl)-1,2,4-oxadiazol-3-yl)isoindolin-1-one]	92%	3%	82%
C[C@H](c1cccc2ccccc12)N1Cc2ccc(-c3noc(C(F)(F)F)n3)cc2C1=O [Example 23, 2-((1R)-1-(1-naphthyl)ethyl)-6-(5-(trifluoromethyl)-1,2,4-oxadiazol-3-yl)isoindolin-1-one]	99%	4%	28%
O=C1c2cc(-c3noc(C(F)(F)F)n3)ccc2CN1Cc1ccccc1F [Example 24, 2-(2-fluorobenzyl)-6-(5-(trifluoromethyl)-1,2,4-oxadiazol-3-yl)isoindolin-1-one]	97%	17%	75%
O=C1c2cc(-c3noc(C(F)(F)F)n3)ccc2CN1Cc1ccccc1Cl [Example 25, 2-(2-chlorobenzyl)-6-(5-(trifluoromethyl)-1,2,4-oxadiazol-3-yl)isoindolin-1-one]	94%	11%	64%
O=C1c2cc(-c3noc(C(F)(F)F)n3)ccc2CN1Cc1ccccc1OC(F)(F)F [Example 26, 2-(2-(trifluoromethoxy)benzyl)-6-(5-(trifluoromethyl)-1,2,4-oxadiazol-3-yl)isoindolin-1-one]	95%	8%	58%
O=C1c2cc(-c3noc(C(F)(F)F)n3)ccc2CN1Cc1c(F)cccc1F [Example 27, 2-(2,6-difluorobenzyl)-6-(5-(trifluoromethyl)-1,2,4-oxadiazol-3-yl)isoindolin-1-one]	96%	21%	76%
N#Cc1cccc(CN2Cc3ccc(-c4noc(C(F)(F)F)n4)cc3C2=O)c1 [Example 28, 3-((1-oxo-6-(5-(trifluoromethyl)-1,2,4-oxadiazol-3-yl)-1,3-dihydro-2H-isoindol-2-yl)methyl)benzonitrile]	95%	26%	82%
N#Cc1ccc(CN2Cc3ccc(-c4noc(C(F)(F)F)n4)cc3C2=O)cc1 [Example 29, 4-((1-oxo-6-(5-(trifluoromethyl)-1,2,4-oxadiazol-3-yl)-1,3-dihydro-2H-isoindol-2-yl)methyl)benzonitrile]	94%	23%	74%
CS(=O)(=O)c1ccc(CN2Cc3ccc(-c4noc(C(F)(F)F)n4)cc3C2=O)cc1 [Example 30, 2-(4-(methylsulfonyl)benzyl)-6-(5-(trifluoromethyl)-1,2,4-oxadiazol-3-yl)isoindolin-1-one]	94%	30%	83%
COc1cc(CN2Cc3ccc(-c4noc(C(F)(F)F)n4)cc3C2=O)ccc1OCC1CCCO1 (stereo not drawn) [Example 31, 2-(3-methoxy-4-(tetrahydrofuran-2-ylmethoxy)benzyl)-6-(5-(trifluoromethyl)-1,2,4-oxadiazol-3-yl)isoindolin-1-one]	94%	40%	92%
O=C1c2cc(-c3noc(C(F)(F)F)n3)ccc2CN1Cc1ccccn1 [Example 32]	99%	13%	77%
COc1ncccc1CN1Cc2ccc(-c3noc(C(F)(F)F)n3)cc2C1=O [Example 33, 2-((2-methoxypyridin-3-yl)methyl)-6-(5-(trifluoromethyl)-1,2,4-oxadiazol-3-yl)isoindolin-1-one]	98%	19%	77%
CC(c1ccccn1)N1Cc2ccc(-c3noc(C(F)(F)F)n3)cc2C1=O (stereo not drawn) [Example 34]	97%	16%	79%
CN(c1ncccc1CN1Cc2ccc(-c3noc(C(F)(F)F)n3)cc2C1=O)S(C)(=O)=O [Example 35, N-methyl-N-(3-((1-oxo-6-(5-(trifluoromethyl)-1,2,4-oxadiazol-3-yl)-1,3-dihydro-2H-isoindol-2-yl)methyl)pyridin-2-yl)methanesulfonamide]	97%	6%	61%
O=C1c2cc(-c3noc(C(F)(F)F)n3)ccc2CN1Cc1nccs1 [Example 36, 2-(1,3-thiazol-2-ylmethyl)-6-(5-(trifluoromethyl)-1,2,4-oxadiazol-3-yl)isoindolin-1-one]	98%	15%	81%
Cc1csc(CN2Cc3ccc(-c4noc(C(F)(F)F)n4)cc3C2=O)n1 [Example 37, 2-((4-methyl-1,3-thiazol-2-yl)methyl)-6-(5-(trifluoromethyl)-1,2,4-oxadiazol-3-yl)isoindolin-1-one]	96%	20%	84%
Cc1cc(CN2Cc3ccc(-c4noc(C(F)(F)F)n4)cc3C2=O)nn1C [Example 38, 2-((1,5-dimethyl-1H-pyrazol-3-yl)methyl)-6-(5-(trifluoromethyl)-1,2,4-oxadiazol-3-yl)isoindolin-1-one]	97%	23%	85%

From patent US10357484B2, “Heterocyclic compound” (Takeda Pharmaceutical Company Limited, priority 2015, dated 2019)
